Patent US12152038B2, “Vasopressin receptor antagonists and products and methods related thereto” (Neumora Therapeutics, Inc., priority 2017, dated 2024)
Where two headings read alike, the source gives them in different places.

Tests used:
[1] = molecular target: T1, human Arginine Vasopressin Receptor V2 (AVPR2) (Homo sapiens, UniProt P30518); test: Vasopressin V2 receptor antagonist assay (TR-FRET cAMP, 1321N1 cells); assay type: cell-based
T1 construct: host or cells: 1321N1 (cAMPZen V2 assay ready frozen cells)
Procedure: The purpose of the assay was to determine the inhibitory effect of synthesized compounds on the Vasopressin receptor 2. The assay was performed in commercially available 1321N1 cells expressing the human Arginine Vasopressin Receptor V2 (AVPR2) (Perkin Elmer #ES-363-CF). Arginine Vasopressin (AVP) evokes an increase in intracellular cAMP in these cells which is measured in a TR-FRET assay using a Europium cAMP tracer and ULight labelled antibody reagents contained in a LANCE Ultra cAMP kit (Perkin Elmer #TRF0263). Increases in cAMP in the assay result in a reduction in TR-FRET as the cAMP produced by the stimulated cells competes with the Eu-cAMP tracer for binding sites on the ULight labelled antibody. Test compounds were assessed for their ability to affect the magnitude of the response to AVP, with antagonists showing a concentration-dependent decrease in the AVP-mediated reduction in TR-FRET signal.
cAMPZen V2 assay ready cells were thawed at 37° C. and resuspended directly from frozen in 9 ml growth medium consisting of DMEM supplemented with 10% v/v fetal bovine serum, 1× non-essential amino acids, and 1 mM sodium pyruvate. Cells were spun at 1000 rpm for 3 minutes and the supernatant was carefully removed and discarded. The pellet was resuspended in 5 ml stimulation buffer and the cell density determined using the Vi-Cell automated cell counter. The cell suspension was diluted to a 0.2×10^6/ml suspension ready for plating. To all wells of a white 384-well Optiplate (Perkin Elmer #6007299) 5 μL of cells in stimulation buffer were dispensed (1,000 cells per well). Stimulation buffer consisted of HBSS (+Ca/+Mg) supplemented with 5 mM HEPES, 0.1% BSA stabiliser and 0.5 mM IBMX.
At the start of each assay day the potency of AVP was assessed and an EC80 concentration determined for subsequent compound profiling. Assays were performed by first an addition of 2.5 μl of control or test compound at 4× final concentration in stimulation buffer followed by 2.5 μl of AVP at 4× final concentration in stimulation buffer. After a 1 hour reaction, detection reagents were added by first an addition of 5 μl EU-cAMP tracer, followed by 5 μl ULight-anti-cAMP both diluted as per the manufacturer's instructions. After a one hour incubation, plates were ready to be read (signals then remained stable for up to 24 hours). Changes in time resolved fluorescence were monitored with excitation via a laser (337 nm) measuring both 615 nm and 665 nm emission wavelengths. […] For compound profiling, test compounds were dispensed by the Labcyte Echo (10-point curve, 1:3 dilutions) in a target 0.1 μl volume then diluted 750-fold in stimulation buffer containing 3% DMSO prior to addition to the cells. At the end of the incubation period, 2.5 μl of AVP in stimulation buffer was added at the previously determined EC80 concentration.
In-plate controls for the assay included a Tolvaptan concentration-response curve as the reference V2 antagonist and an AVP concentration-response curve to confirm the reproducibility of the EC80 used for the compound challenge.

[2] = molecular target: T2, MDR1 (P-glycoprotein) (Homo sapiens, UniProt P08183); test: MDR1-MDCK permeability and efflux assay (Papp, efflux ratio, effective efflux ratio); assay type: in vitro ADME; details: dog; for Papp A→B at 1 h, 10 μM: pH 7.4, read-out: Papp AB MDR1
T2 construct: host or cells: MDCK (MDR1-MDCK; wild-type MDCK as comparator)
Procedure: (§1) The MDR1-MDCK effective efflux assay was performed as described in the BioFocus Standard Operating Procedure, ADME-SOP-56. Both wild-type (WT) and MDR1-MDCK cells (Solvo Biotechnology) were seeded onto 24-well Transwell plates at 2.35×10^5 cells per well and used in confluent monolayers after a 3 day culture at 37° C. under 5% CO2. For both cell types, test and control compounds (propranolol, vinblastine) were added (10 μM, 0.1% DMSO final, n=2) to donor compartments of the Transwell plate assembly in assay buffer (Hanks balanced salt solution supplemented with 25 mM HEPES, adjusted to pH 7.4) for both apical to basolateral (A>B) and basolateral to apical (B>A) measurements. Incubations were performed at 37° C., with samples removed from both donor and acceptor chambers at T=0 and 1 hour and compound analysed by mass spectrometry (LC-MS/MS) including an analytical internal standard.
(§2) Apparent permeability (Papp) values were determined from the relationship: Papp=[CompoundAcceptor T=end]×V Acceptor/([Compound Donor T=0]×V Donor)/incubation time×V Donor/Area×60×10^−6 cm/s
(§3) In this equation, V is the volume of each Transwell compartment (apical 125 μL, basolateral 600 μL), and concentrations are the relative MS responses for compound (normalized to internal standard) in the donor chamber before incubation and acceptor chamber at the end of the incubation, and Area is the area of cells exposed for drug transfer (0.33 cm^2).
(§4) Efflux ratios (Papp B>A/Papp A>B) were calculated for each compound from the mean Papp values in each direction for both wild-type and MDR1-MDCK cells.
(§5) In order to confirm the involvement of MDR1 in any efflux seen, an “effective efflux ratio” (EER) was calculated by comparing compound efflux ratios (ER) in the two cell types by the following equation: EER=ER(MDR1-MDCK)/ER(wild-type MDCK)
(§6) This ratio illustrates the effect of the over-expressed MDR1 normalised for the background movement of compound through the wild-type cells.
(§7) Lucifer Yellow (LY) was added to the apical buffer in all wells to assess viability of the cell layer. […] Recoveries<50% indicates compound solubility, stability or binding issues, thereby reducing the reliability of a result.
(§8) The inherent ability of a potential drug molecule to penetrate the blood brain barrier and avoid efflux by transporters expressed in the brain, can be roughly correlated with the Papp(A-B) and the efflux ratio (as defined above), respectively. A potential drug molecule with an apparent permeability<7 (10^−6 cm/sec) has low permeability (+), >7 (10^−6 cm/sec) but <10 (10^−6 cm/sec) has moderate permeability (++), >10 (10^−6 cm/sec) but <20 (10^−6 cm/sec) has good permeability (+++), and >20 (10^−6 cm/sec) is highly permeable (++++). High permeability in the WT and MDCK II cell permeability assay increases the probability of blood brain barrier penetration and access to the CNS. A potential drug molecule in the above assay system with an efflux ratio or effective efflux ratio of <1 has low probability of being an efflux substrate (++++), >1 but <2 has moderate probability of being an efflux substrate (+++), >2 but <3 has has an increased probability of being an efflux substrate (++), and >3 has a high probability of being an efflux substrate (+). If a potential drug molecule is an efflux substrate, the molecule will have a low probability of reaching exposures in the brain (site of action) that will result in efficacious levels of receptor occupancy.

[3] = Wild-type MDCK permeability and efflux assay (Papp, efflux ratio); assay type: in vitro ADME; details: dog, pH 7.4, wild-type MDCK cells; for efflux ratio at 1 h, 10 μM: Papp B>A/Papp A>B, read-out: ER WT (Efflux Ratio)
Procedure: as §1, §2, §3, §4, §5, §6, §7, §8

[4] = MDCK-MDR1, pH 7.4, ER(MDR1-MDCK)/ER(wild-type MDCK), read-out: EER (Effective Efflux Ratio)
[5] = MDCK-MDR1, pH 7.4, Papp B>A/Papp A>B, MDR1-MDCK cells, read-out: ER MDR1 (Efflux Ratio)

T2 sequence (P08183 whole entry): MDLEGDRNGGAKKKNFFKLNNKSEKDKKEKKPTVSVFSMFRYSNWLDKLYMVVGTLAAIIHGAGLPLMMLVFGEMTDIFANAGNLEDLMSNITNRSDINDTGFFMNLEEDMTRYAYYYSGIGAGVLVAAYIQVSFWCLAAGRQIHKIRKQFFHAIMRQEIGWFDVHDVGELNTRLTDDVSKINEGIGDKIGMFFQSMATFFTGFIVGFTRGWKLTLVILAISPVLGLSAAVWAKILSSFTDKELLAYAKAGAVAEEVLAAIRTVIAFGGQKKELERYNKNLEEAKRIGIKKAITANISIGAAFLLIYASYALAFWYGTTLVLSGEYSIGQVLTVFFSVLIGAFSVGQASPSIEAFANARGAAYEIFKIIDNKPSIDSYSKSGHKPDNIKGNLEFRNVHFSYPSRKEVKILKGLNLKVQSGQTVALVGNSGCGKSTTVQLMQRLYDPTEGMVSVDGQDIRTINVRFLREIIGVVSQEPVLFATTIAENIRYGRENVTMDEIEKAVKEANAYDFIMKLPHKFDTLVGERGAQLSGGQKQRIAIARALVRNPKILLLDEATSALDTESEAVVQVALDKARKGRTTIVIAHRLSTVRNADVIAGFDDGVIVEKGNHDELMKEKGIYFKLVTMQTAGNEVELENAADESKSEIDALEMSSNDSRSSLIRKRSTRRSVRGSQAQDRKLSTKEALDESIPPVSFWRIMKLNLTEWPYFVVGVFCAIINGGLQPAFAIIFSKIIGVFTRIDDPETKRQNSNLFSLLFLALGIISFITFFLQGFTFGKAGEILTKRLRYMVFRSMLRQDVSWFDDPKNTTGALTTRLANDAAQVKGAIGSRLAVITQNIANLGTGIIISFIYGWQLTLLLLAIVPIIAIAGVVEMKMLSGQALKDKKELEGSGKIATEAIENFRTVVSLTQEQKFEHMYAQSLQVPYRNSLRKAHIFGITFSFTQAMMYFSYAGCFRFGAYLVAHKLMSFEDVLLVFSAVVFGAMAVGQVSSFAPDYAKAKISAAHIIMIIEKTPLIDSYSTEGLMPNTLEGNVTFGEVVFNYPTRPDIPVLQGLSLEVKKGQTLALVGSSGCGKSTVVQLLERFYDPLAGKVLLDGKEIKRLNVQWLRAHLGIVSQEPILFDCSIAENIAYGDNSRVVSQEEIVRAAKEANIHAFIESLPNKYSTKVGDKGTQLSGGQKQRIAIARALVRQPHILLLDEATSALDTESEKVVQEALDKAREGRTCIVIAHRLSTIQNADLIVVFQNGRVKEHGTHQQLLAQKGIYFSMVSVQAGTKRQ
T1 sequence (P30518 whole entry): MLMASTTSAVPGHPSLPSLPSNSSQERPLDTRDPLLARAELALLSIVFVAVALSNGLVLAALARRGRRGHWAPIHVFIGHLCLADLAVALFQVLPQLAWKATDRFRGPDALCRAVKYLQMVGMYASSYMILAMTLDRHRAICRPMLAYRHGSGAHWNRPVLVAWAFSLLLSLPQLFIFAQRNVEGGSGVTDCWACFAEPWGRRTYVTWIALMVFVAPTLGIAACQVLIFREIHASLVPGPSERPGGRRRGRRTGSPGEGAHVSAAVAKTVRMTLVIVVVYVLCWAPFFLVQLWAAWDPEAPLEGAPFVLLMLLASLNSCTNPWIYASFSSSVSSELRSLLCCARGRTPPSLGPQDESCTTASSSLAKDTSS

Row | IC50 [1] | Structure (SMILES) | other results
1 | ≥ 1 µM | CC1COc2cc(Cl)ccc2N1C(=O)N1CC2(C1)CN(c1cccnn1)C2 (single isomer, unassigned) [9-1-A] | –
2 | ≥ 1 µM | CC1CN(C(=O)N2CC3(C2)CN(c2ccc(F)cn2)C3)c2ccc(Cl)cc2O1 (single isomer, unassigned) [9-3-A] | –
3 | ≥ 1 µM | CC1CN(C(=O)N2CC3(C2)CN(c2ccc(F)cn2)C3)c2ccc(F)cc2O1 (single isomer, unassigned) [9-4-B] | –
4 | ≥ 1 µM | O=C(N1CC2(C1)CN(c1ccccn1)C2)N1CCC(O)c2cc(Cl)ccc21 (single isomer, unassigned) [13-2-A] | –
5 | ≥ 1 µM | O=C(N1CC2(C1)CN(c1cnccn1)C2)N1CCC(O)c2cc(Cl)ccc21 (single isomer, unassigned) [13-3-A] | –
6 | ≥ 1 µM | CC1COc2cc(F)ccc2N1C(=O)N1CC2(C1)CN(c1ncc(F)cn1)C2 (single isomer, unassigned) [18-4-B] | –
7 | ≥ 1 µM | CC1COc2cc(F)c(F)cc2N1C(=O)N1CC2(C1)CN(c1cccnn1)C2 (single isomer, unassigned) [19-3-B] | –
8 | < 0.1 µM | CC1COc2cc(F)c(F)cc2N1C(=O)N1CC2(C1)CN(c1ccc(F)cn1)C2 (single isomer, unassigned) [19-5-B] | –
9 | ≥ 1 µM | CC1COc2cc(Cl)ccc2N1C(=O)N1CC2(C1)CN(c1cccnc1)C2 (single isomer, unassigned) [20-1-B] | –
10 | < 0.1 µM | Cc1cnc(N2CC3(CN(C(=O)N4c5ccc(Cl)cc5OCC4C)C3)C2)cn1 (single isomer, unassigned) [20-5-B] | –
11 | ≥ 1 µM | O=C(N1CC2(C1)CN(c1ncccn1)C2)N1CCOc2cc(Cl)ccc21 [1-4] | –
12 | ≥ 1 µM | Cc1cccnc1N1CC2(CN(C(=O)N3CCOc4cc(Cl)ccc43)C2)C1 [1-5] | –
13 | ≥ 1 µM | Cc1ccnc(N2CC3(CN(C(=O)N4CCOc5cc(Cl)ccc54)C3)C2)c1 [1-14] | –
14 | ≥ 1 µM | COc1ccnc(N2CC3(CN(C(=O)N4CCOc5cc(Cl)ccc54)C3)C2)c1 [1-15] | –
15 | ≥ 1 µM | O=C(N1CC2(C1)CN(c1ncccc1F)C2)N1CCc2cc(Cl)ccc21 [1-76] | –
16 | ≥ 1 µM | O=C(N1CC2(C1)CN(c1ccccn1)C2)N1CCc2cc(Cl)ccc21 [1-77] | –
17 | ≥ 1 µM | O=C(N1CC2(C1)CN(c1cccc(F)n1)C2)N1CCc2cc(Cl)ccc21 [1-78] | –

Row | IC50 [1] | Structure (SMILES) | other results
18 | ≥ 1 µM | O=C(N1CC2(C1)CN(c1cc(F)ccn1)C2)N1CCc2cc(Cl)ccc21 [1-79] | –
19 | ≥ 1 µM | O=C(N1CC2(C1)CN(c1cccnn1)C2)N1CCOc2cc(Cl)c(F)cc21 [1-81] | –
20 | ≥ 1 µM | O=C(N1CC2(C1)CN(c1noc3ccccc13)C2)N1CCOc2cc(Cl)ccc21 [4-1, (6-(benzo[d]isoxazol-3-yl)-2,6-diazaspiro[3.3]heptan-2-yl)(7-chloro-2,3-dihydro-4H-benzo[b][1,4]oxazin-4-yl)methanone] | –
21 | ≥ 1 µM | O=C(N1CC2(C1)CN(c1ncc(F)cn1)C2)N1CCOc2cc(Cl)ccc21 [4-2] | –
22 | ≥ 1 µM | Cc1nc(N2CC3(CN(C(=O)N4CCOc5cc(Cl)ccc54)C3)C2)ncc1F [6-1, (7-chloro-2,3-dihydro-4H-benzo[b][1,4]oxazin-4-yl)(6-(5-fluoro-4-methylpyrimidin-2-yl)-2,6-diazaspiro[3.3]heptan-2-yl)methanone] | –
23 | – | O=C(N1CC2(C1)CN(c1ccc(F)cn1)C2)N1CCOCc2cc(Cl)ccc21 [8-4] | efflux ratio at 1 h, 10 μM [2, 4]: 1 to 2; efflux ratio at 1 h, 10 μM [2, 5]: 1 to 2; Papp A→B at 1 h, 10 μM ([2]; MDR1-MDCK cells): > 20 ×10⁻⁶ cm/s; Papp A→B at 1 h, 10 μM [3]: > 20 ×10⁻⁶ cm/s; efflux ratio at 1 h, 10 μM [3]: 1 to 2
24 | ≥ 1 µM | O=C(N1CC2(C1)CN(c1cnccn1)C2)N1CCOCc2cc(Cl)ccc21 [8-13] | –
25 | < 0.1 µM | CC1Cc2cc(Cl)ccc2N1C(=O)N1CC2(C1)CN(c1ccc(F)cn1)C2 (centres unmarked) [8-16] | –
26 | ≥ 1 µM | CC1COc2cc(Cl)ccc2N1C(=O)N1CC2(C1)CN(c1cccnn1)C2 (centres unmarked) [9-1, (7-chloro-3-methyl-2,3-dihydro-4H-benzo[b][1,4]oxazin-4-yl)(6-(pyridazin-3-yl)-2,6-diazaspiro[3.3]heptan-2-yl)methanone] | –
27 | ≥ 1 µM | COc1ccc2c(c1)OCCN2C(=O)N1CC2(C1)CN(c1ccc(F)cn1)C2 [9-2] | –
28 | ≥ 1 µM | CC1CN(C(=O)N2CC3(C2)CN(c2ccc(F)cn2)C3)c2ccc(Cl)cc2O1 (centres unmarked) [9-3] | –
29 | ≥ 1 µM | O=C(N1CC2(C1)CN(c1ccc(F)cn1)C2)N1CCOc2cc(F)c(F)cc21 [9-6] | –
30 | < 0.1 µM | CCC1COc2cc(Cl)ccc2N1C(=O)N1CC2(C1)CN(c1ccccn1)C2 (centres unmarked) [11-1, (7-chloro-3-ethyl-2,3-dihydro-4H-benzo[b][1,4]oxazin-4-yl)(6-(pyridin-2-yl)-2,6-diazaspiro[3.3]heptan-2-yl)methanone] | –
31 | 0.1 to 0.5 µM | CC1COc2cc(F)ccc2N1C(=O)N1CC2(C1)CN(c1ccc(F)cn1)C2 (centres unmarked) [12-1, (7-fluoro-3-methyl-2,3-dihydro-4H-benzo[b][1,4]oxazin-4-yl)(6-(5-fluoropyridin-2-yl)-2,6-diazaspiro[3.3]heptan-2-yl)methanone] | –
32 | – | O=C(N1CC2(C1)CN(c1ccc(F)cn1)C2)N1CCC(O)c2cc(Cl)ccc21 (centres unmarked) [13-1, (6-chloro-4-hydroxy-3,4-dihydroquinolin-1(2H)-yl)(6-(5-fluoropyridin-2-yl)-2,6-diazaspiro[3.3]heptan-2-yl)methanone] | efflux ratio at 1 h, 10 μM [2, 4]: > 3; efflux ratio at 1 h, 10 μM [2, 5]: > 3; Papp A→B at 1 h, 10 μM ([2]; MDR1-MDCK cells): > 20 ×10⁻⁶ cm/s; Papp A→B at 1 h, 10 μM [3]: > 20 ×10⁻⁶ cm/s; efflux ratio at 1 h, 10 μM [3]: < 1
33 | ≥ 1 µM | O=C(N1CC2(C1)CN(c1cnccn1)C2)N1CCC(O)c2cc(Cl)ccc21 (centres unmarked) [13-3] | –
